In US9302996B2, “Continuous arycyclic compound” (MITSUBISHI TANABE PHARMA CORPORATION, priority 2010, dated 2016):
Like-named read-outs stand apart in the source and are kept apart here.

What was measured:
Assay type in all cases: in vivo
[1] = tested on: KK-Ay mice; experiment: Weight gain-inhibiting action, hypoglycemic effect, insulin in blood plasma lowering action in KK-Ay mice; conditions: Mus musculus, 336 h, male KK-Ay mice, high fat diet, 30 mg/kg/day oral, 2 weeks
Method: To 8 weeks-old male KK-Ay mice were provided high fat diet (Oriental Yeast Co., Ltd, 60 cal % fat), and Test compound suspended in 0.2% carboxymethylcellulose solution was orally administered once a day. Oral administration was continued for 2 weeks, and a weight gain-inhibiting rate of the Test compound was calculated by using a weight gain amount of the solvent control group during the test period as 100%. After final administration, the mice were fasted overnight, and blood was collected from tail vein. Measurement of a blood-sugar level was carried out by using glucose Cα Test Wako (Wako Pure Chemical Industries, Ltd.), and measurement of insulin in blood plasma was carried out by using a mouse insulin measurement kit (Morinaga Institute of Biological Science, Inc.).

[2] = tested on: ICR mice; experiment: Triglyceride (TG) in blood plasma increase-inhibiting action due to lipid administration; conditions: Mus musculus; male ICR mice, 5 mg/kg oral, lipid (Intralipos 20%) after 30 minutes, plasma TG 2 hours after lipid; read-out: Inhibiting rate of TG-increase in blood plasma (5 mg/kg)
Method: 6 to 9 weeks-old male ICR mice were fasted overnight, and Test compound suspended in 0.2% carboxymethyl cellulose solution was orally administered to the mice. A lipid (Intralipos 20%, OTSUKA PHARMACEUTICAL CO., LTD., 10 mL/kg) was orally administered after 30 minutes. Blood was collected from tail vein immediately before the lipid administration, and after 2 hours from the same to obtain blood plasma. Measurement of TG in blood plasma was carried out by using a triglyceride E Test Wako (Wako Pure Chemical Industries, Ltd.), and an increased value of TG in blood plasma by administration of the lipid was calculated. An increased value of TG in blood plasma in a solvent control group was used as a control, and an inhibiting rate in increase of TG in blood plasma in the Test compound administered group was calculated.

[3] = tested on: C57BL/6J mice; experiment: Antifeeding activity (high fat diet intake up to 4 hours); conditions: Mus musculus, male C57BL/6J mice, 5 mg/kg oral, food ingested up to 4 hours, read-out: Antifeeding rate (5 mg/kg)
Method: 7 to 10 weeks-old male C57BL/6J mice were fasted overnight, and the test compound suspended in 0.2% carboxymethylcellulose solution was orally administered. Immediately after the administration, high fat diet (Oriental Yeast Co., Ltd, 60 cal % fat) was provided and freely fed. An amount of food ingested up to 4 hours was measured, and a lowering rate (an antifeeding rate) of the amount of food ingested in the Test compound administered group was calculated as compared to that of the solvent control group as a control.

[4] = read-out: Hypoglycemic action (30 mg/kg/day)
[5] = read-out: Insulin in blood plasma-lowering action (30 mg/kg/day)
[6] = read-out: Weight gain-inhibiting action (30 mg/kg/day)

SMILES | inhibition in vivo at 30 mg/kg [1, 4] [%] | inhibition in vivo at 30 mg/kg [1, 5] [%] | inhibition in vivo at 30 mg/kg [1, 6] [%] | inhibition in vivo at 5 mg/kg [2] [%] | inhibition in vivo at 5 mg/kg [3] [%]
CC(C)(COc1ccc(-c2ccc(-c3ncc(C(F)(F)F)[nH]3)cc2)cn1)C(=O)O [Example 3-3), 2,2-dimethyl-3-[(5-{4-[5-(trifluoromethyl)-1H-imidazol-2-yl]phenyl}pyridin-2-yl)oxy]propanoic acid] | 41 | 51 | 52 | 78 | 76
CC(C)(COc1ccc(-c2ccc(-c3ncc(C(F)(F)F)[nH]3)cn2)cc1F)C(=O)O [Example 4-2), 3-(2-fluoro-4-{5-[5-(trifluoromethyl)-1H-imidazol-2-yl]pyridin-2-yl}phenoxy)-2,2-dimethylpropanoic acid] | 50 | 52 | 49 | 60 | 82
Cc1cc(-c2ccc(OCC(C)(C)C(=O)O)cc2)ncc1-c1ncc(C(F)(F)F)[nH]1 [Example 5-3), 2,2-dimethyl-3-(4-{4-methyl-5-[5-(trifluoromethyl)-1H-imidazol-2-yl]pyridin-2-yl}-phenoxy)propanoic acid] | 55 | 56 | 48 | 71 | 37
CC(C)(COc1ccc(-c2ccc(-c3ncc(C4(C(F)(F)F)CC4)[nH]3)cn2)cc1)C(=O)O [Example 6-3), sodium 2,2-dimethyl-3-[4-(5-{5-[1-(trifluoromethyl)cyclopropyl]-1H-imidazol-2-yl]pyridin-2-yl}phenoxy)propanoate] | 63 | 72 |  | 78 | 71
CC(C)(COc1ccc(-c2cnc(-c3ncc(C(F)(F)F)[nH]3)cn2)cc1)C(=O)O [Example 7-7), 2,2-dimethyl-3-(4-{5-[5-(trifluoromethyl)-1H-imidazol-2-yl]pyrazin-2-yl}phenoxy)-propanoic acid] | 62 | 58 | 66 | 71 | 75
O=C(O)C1(COc2ccc(-c3ccc(-c4ncc(C(F)(F)F)[nH]4)cn3)cc2)CCC1 [Example 14] | 23 | 27 | 17 | 69 | 66
CCC(CC)(COc1ccc(-c2ccc(-c3ncc(C(F)(F)F)[nH]3)cn2)cn1)C(=O)O [Example 22] | 40 | 47 | 30 | 76 | 69
CCC(CC)(COc1ccc(-c2ccc(-c3ncc(C(F)(F)F)[nH]3)nc2)cn1)C(=O)O [Example 23] | -13 | 14 | 39 | 85 | 63
CC(C)Cc1cnc(-c2ccc(-c3ccc(OCC(C)(C)C(=O)O)cc3)nc2)[nH]1 [Example 26] | 40 | 27 | 44 | 67 | 79
CC(C)(COc1ccc(-c2ccc(-c3ncc(C4CC(F)(F)C4)[nH]3)cn2)cc1)C(=O)O [Example 33] | 42 | 41 | 39 | 54 | 44
Cc1cc(OCC(C)(C)C(=O)O)ncc1-c1ccc(-c2ncc(C3(C(F)(F)F)CC3)[nH]2)nc1 [Example 36] | 23 | 19 | 59 | 69 | 63
Cc1cc(OCC(C)(C)C(=O)O)ncc1-c1ccc(-c2ncc(C3(C(F)(F)F)CC3)[nH]2)cc1 [Example 39] | 44 | 50 | 38 | 54 | 76
CC(C)(COc1ccc(-c2ccc(-c3ncc(C4(C(F)(F)F)CC4)[nH]3)c(F)c2)cn1)C(=O)O [Example 45] | 59 | 56 | 42 | 71 | 72
Cc1cc(OCC(C)(C)C(=O)O)ncc1-c1ccc(-c2ncc(C3(C(F)(F)F)CC3)[nH]2)c(F)c1 [Example 54-4), 3-{[5-(3-fluoro-4-{5-[1-(trifluoromethyl)cyclopropyl]-1H-imidazol-2-yl]phenyl)-4-methylpyridin-2-yl}oxy}-2,2-dimethylpropanoic acid] | 74 | 93 | 113 | 74 | 46
Cc1cc(OCC(C)(C)C(=O)O)ncc1-c1ccc(-c2ncc(CC3CC3)[nH]2)nc1 [Example 118] |  |  |  | 64 | 61
Cc1cc(OCC(C)(C)C(=O)O)ncc1-c1ccc(-c2ncc(CC3CC3)[nH]2)c(Cl)c1 [Example 121] |  |  |  | 53 | 57
Cc1cc(OCC(C)(C)C(=O)O)ncc1-c1ccc(-c2ncc(C(F)(F)C(F)(F)F)[nH]2)c(F)c1 [Example 124] |  |  |  | 98 | 75
Cc1cc(OCC2(C(=O)O)CC2)ncc1-c1ccc(-c2ncc(C(F)(F)F)[nH]2)nc1 [Example 132] |  |  |  | 65 | 47
Cc1cc(OCC2(C(=O)O)CC2)ncc1-c1ccc(-c2ncc(C(F)(F)F)[nH]2)c(F)c1 [Example 133] |  |  |  | 75 | 83
CCC(CC)(COc1cc(C)c(-c2ccc(-c3ncc(C(F)(F)F)[nH]3)c(F)c2)cn1)C(=O)O [Example 134] |  |  |  | 84 | 74
Cc1cc(OCC2(C(=O)O)CC2)ncc1-c1cnc(-c2ncc(C(F)(F)F)[nH]2)c(F)c1 [Example 136] |  |  |  | 64 | 62
Cc1cc(OCC2(C(=O)O)CCC2)ncc1-c1cnc(-c2ncc(C(F)(F)F)[nH]2)c(F)c1 [Example 137] |  |  |  | 81 | 83
CCC(CC)(COc1cc(C)c(-c2ccc(-c3ncc(C(F)(F)F)[nH]3)c(Cl)c2)cn1)C(=O)O [Example 140] |  |  |  | 68 | 78
CC(C)(COc1ccc(-c2cnc(-c3ncc(C(F)(F)F)[nH]3)c(F)c2)cn1)C(=O)O [Example 141] |  |  |  | 82 | 55
CC(C)(COc1ncc(-c2ccc(-c3ncc(C(C)(C)C(F)(F)F)[nH]3)cc2)cc1F)C(=O)O [Example 143] |  |  |  | 55 | 4
